Results: paper PMC6273799, “The Interference of Selected Cytotoxic Alkaloids with the Cytoskeleton: An Insight into Their Modes of Action” (Molecules, 2016)
Like-named read-outs stand apart in the source and are kept apart here.

Experiments:
[1] = target: T1, tubulin plus microtubule-associated proteins (MAPs) from porcine brains (Sus scrofa, UniProt P02550+P02554); assay: In vitro tubulin polymerization assay (light scattering at 360 nm); format: biochemical; conditions: for IC50: 5.6 mg/mL tubulin-MAPs, 37 °C, 40 min, read-out: IC50 inhibition of tubulin polymerization in vitro; for effect on tubulin polymerization in vitro: tubulin-MAPs
T1 construct: prepared from porcine brains (freshly obtained from a local slaughter house) by two cycles of polymerization and depolymerization; from tissue; host or cells: porcine brain
Procedure: Tubulin plus microtubule-associated proteins (MAPs) were prepared from porcine brains (freshly obtained from a local slaughter house) by two cycles of polymerization and depolymerization according to a standard protocol. […] The rate and extent of the polymerization reaction were monitored by light scattering at 360 nm using Tecan infinite M200 Pro.
(§1) All experiments were performed at least three times. Data are presented as the mean ± standard deviation. Statistical comparison between controls and different treatments were performed by an unpaired Student’s t-test. Significance was considered at p < 0.05.

[2] = tested on: Hela, MCF-7 and U2OS cells; assay: MTT cytotoxicity, summary over three cell lines; format: cell-based; conditions: Homo sapiens, MCF-7, U2OS
Procedure: (§2) The anti-proliferative effects of alkaloids were assessed using the MTT assay, as previously described. In brief, 1 × 10^4 cells were seeded in 96-well-plates and incubated with serial dilutions of alkaloids for 48 h (Hela, U2OS) and 72 h (MCF-7). MTT solution was then added and incubated for 2 h. After the addition of DMSO, the plate was read at 570 nm using the Tecan infinite M200 Pro (Tecan, Crailsheim, Germany).
as §1

U2OS cells = assay: MTT cytotoxicity assay, U2OS; format: cell-based, human; conditions: 48 h, mean ± SD
Procedure: as §2, §1

[3] = tested on: microtubules in U2OS cells; assay: Imaging of microtubule network in α-tubulin-GFP U2OS cells; format: cell-based, human
Procedure: α-Tubulin-GFP U2OS cells (1 × 10^5) were seeded in 24-well plates and grown for 24 h. […] The images were analyzed using BZ-II Analyzer software (version 2.1, Keyence, Neu-Isenburg, Germany).

[4] = tested on: actin filaments in Hela cells; assay: Imaging of actin filaments in Hela cells (actin-RFP, immunofluorescence); format: cell-based, human; conditions: high concentration (IC80)
Procedure: (§3) Then, cells were fixed in 4% paraformaldehyde at 4 °C for 20 min and permeabilized by 0.3% (v/v) Triton X-100 for 10 min. Nonspecific binding sites on the coverslips were blocked by incubating them with 5% FBS for 1 h. To stain the microtubules, cells were firstly incubated with 1:100 mouse anti-α-tubulin monoclonal IgG for 1 h and then with 1:200 goat anti-mouse […] for 1 h. Cells were then incubated with […] Atto 390 phalloidin for 45 min to stain the actin filaments and 20 μg/mL propidium iodide for 30 min to stain the cell nucleus/chromosomes. After washing steps, the coverslips were mounted by mowiol. Microtubules, actin filaments and cell nucleus/chromosomes were observed and analyzed using the Keyence BZ-9000 microscope as described before.
Hela cells (2 × 10^4) were seeded in 24-well plates and mixed with CellLight® Actin-RFP BacMam 2.0, which is a fusion construct of human actin and TagRFP, providing an accurate and specific targeting to cellular actin filaments. After 16 h of incubation, 200 μL of different concentrations of alkaloids (IC80, IC50) were added into each well, and the cells were analyzed as described above (Section 4.4).

MCF-7 cells = assay: MTT cytotoxicity assay, MCF-7; format: cell-based, human; conditions: mean ± SD
Procedure: as §2, §1

[5] = tested on: microtubules in Hela cells; assay: Immunofluorescence staining of microtubules and spindles in Hela cells; format: cell-based, human; conditions: for effect on mitotic spindles: Hela metaphase cells, IC50, 24 h; for effect on interphase cellular microtubules: Hela, immunofluorescence, IC80
Procedure: as §3

Hela cells [6] = assay: MTT cytotoxicity assay, Hela; format: cell-based, human; conditions: 48 h, mean ± SD
Procedure: as §2, §1

Hela cells [7] = assay: Cell cycle analysis by flow cytometry (propidium iodide); format: cell-based, human
Procedure: Cell cycle analysis was carried out as established in our laboratory. Hela cells (5 × 10^5) were seeded in 6-well plates and treated with different concentrations of alkaloids for 24 h. Cells were then collected, centrifuged and fixed in 70% ice-cold ethanol for at least 8 h. After the washing steps, cells were treated with 0.2 mg/mL RNase A for 30 min at 37 °C and then stained with 0.1 mg/mL propidium iodide. Samples were analyzed using a FACScan flow cytometer (Becton Dickinson, Heidelberg, Germany). Data were analyzed using Cell Quest™ Pro software (Becton Dickinson) and Microsoft Excel 2013 (Microsoft Corporation, Redmond, WA, USA).

[8] = read-out: IC50 values, range over three cell lines
[9] = U2OS α-tubulin-GFP, IC80 and IC50, 2-48 h
[10] = read-out: IC50 values, range over all three cell lines

T1 sequence (P02550 whole entry): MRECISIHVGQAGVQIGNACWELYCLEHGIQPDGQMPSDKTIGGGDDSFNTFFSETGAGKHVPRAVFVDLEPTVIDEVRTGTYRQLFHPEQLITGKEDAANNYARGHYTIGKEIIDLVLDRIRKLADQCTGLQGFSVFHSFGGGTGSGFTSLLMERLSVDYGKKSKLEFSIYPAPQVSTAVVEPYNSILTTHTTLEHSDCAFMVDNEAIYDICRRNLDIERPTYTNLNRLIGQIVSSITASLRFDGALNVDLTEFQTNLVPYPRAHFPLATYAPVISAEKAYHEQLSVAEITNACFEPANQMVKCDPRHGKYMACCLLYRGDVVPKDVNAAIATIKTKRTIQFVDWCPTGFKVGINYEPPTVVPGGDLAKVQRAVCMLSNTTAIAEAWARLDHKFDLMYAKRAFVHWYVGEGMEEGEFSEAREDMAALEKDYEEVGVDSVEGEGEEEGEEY
T1 sequence (P02554 whole entry): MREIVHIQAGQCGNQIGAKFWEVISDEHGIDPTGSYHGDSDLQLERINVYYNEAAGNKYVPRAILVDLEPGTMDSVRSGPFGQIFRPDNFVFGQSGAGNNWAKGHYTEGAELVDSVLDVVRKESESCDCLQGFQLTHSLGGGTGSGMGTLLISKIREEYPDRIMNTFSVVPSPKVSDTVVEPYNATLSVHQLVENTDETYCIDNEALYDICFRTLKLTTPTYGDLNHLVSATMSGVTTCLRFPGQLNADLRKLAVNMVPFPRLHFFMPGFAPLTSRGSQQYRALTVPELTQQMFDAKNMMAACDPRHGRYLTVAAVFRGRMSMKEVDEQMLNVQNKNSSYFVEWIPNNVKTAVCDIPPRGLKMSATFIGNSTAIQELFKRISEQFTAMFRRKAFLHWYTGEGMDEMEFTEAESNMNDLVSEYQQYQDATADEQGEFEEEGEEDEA

IC50 [1]	SMILES	IC50 ([1]; mean ± SD)	IC50 [2, 8]	IC50 (U2OS cells; Homo sapiens, U2OS)	effect on microtubule network [3, 9]	effect on actin filaments [4]	IC50 (MCF-7 cells; Homo sapiens, MCF7, 72 h)	effect on mitotic spindles [5]	IC50 (Hela cells [6]; Homo sapiens, HeLa)	effect on cell cycle (Hela cells [7]; 24 h)	also measured
–	COc1ccc2c(c[n+](C)c3c4cc5c(cc4ccc23)OCO5)c1OC [Chelerythrine, chelerythrine]	206 ± 4.2 µM	920 to 7630 nM	2.88 ± 0.76 µM	displayed similar effects as sanguinarine	significant reduction of actin filament mass	7.63 ± 3.43 µM	abnormal, but still bipolar spindles	3850 ± 2100 nM	did not change the proportion of mitotic cells	effect on interphase cellular microtubules [5]: significantly reduced the mass of microtubules
–	CN1Cc2c(ccc3c2OCO3)[C@@H]2[C@H]1c1cc3c(cc1C[C@@H]2O)OCO3 [Chelidonine, chelidonine]	34.5 ± 9.47 µM	920 to 7630 nM	3.86 ± 1.99 µM	–	significant reduction of actin filament mass	3.85 ± 0.1 µM	multipolar spindles with chromosome congression failure	1130 ± 370 nM	–	effect on microtubule network [3]: significantly decreased cellular microtubule mass; G2/M population (Hela cells [7]; 2.5 μM, 24 h): 88.27% ± 0.99%
–	COc1cc2c(c(OC)c1OC)-c1ccc(OC)c(=O)cc1[C@@H](NC(C)=O)CC2 [Colchicine, colchicine]	–	–	–	reduced the mass of the microtubule network	No apparent changes of actin filaments	–	completely depolymerized spindle	–	–	G2/M population (Hela cells [7]; 0.1 μM, 24 h): 89.66% ± 2.04%
–	C/C1=C/C(=O)O[C@@H]2C[C@@H](CC[C@H](C)/C=C\CC1)O[C@@](O)([C@@H]1CSC(=O)N1)C2 [Latrunculin B, latrunculin B]	–	–	–	immediately changed the cell morphology	extensive depolymerization of the actin network	–	–	–	–	IC50 (U2OS cells): 5.48 ± 0.68 µM; IC50 (MCF-7 cells; 72 h): 36.8 ± 2.25 µM; IC50 (Hela cells [6]): 7130 ± 610 nM; G2/M population (Hela cells [7]; 7 μM, 24 h): 80.05% ± 11.89%
> 1000 µM	COc1ccc2c(c1OC)C(=O)O[C@@H]2[C@H]1c2c(cc3c(c2OC)OCO3)CCN1C [Noscapine, noscapine]	–	–	60.9 ± 12.2 µM	remarkably depolymerized the microtubule network and reduced its mass	No apparent changes of actin filaments	35.2 ± 8.18 µM	multipolar spindles with chromosome congression failure	16800 ± 9790 nM	–	G2/M population (Hela cells [7]; 80 μM, 24 h): 73.42% ± 8.31%
–	CC(=O)O[C@H]1C(=O)[C@@]2(C)[C@H]([C@H](OC(=O)c3ccccc3)[C@]3(O)C[C@H](OC(=O)[C@H](O)[C@@H](NC(=O)c4ccccc4)c4ccccc4)C(C)=C1C3(C)C)[C@]1(OC(C)=O)CO[C@@H]1C[C@@H]2O [Paclitaxel, paclitaxel]	38.2 ± 3.33 µM	–	0.23 ± 0.1 µM	promoted the polymerization of microtubules	No apparent changes of actin filaments	1.05 ± 0.43 µM	aberrant, but still bipolar spindles	0.08 ± 0.1 nM	–	G2/M population (Hela cells [7]; 0.1 μM, 24 h): 80.37% ± 5.36%
> 1000 µM	CN1CCc2cc3c(cc2C(=O)Cc2ccc4c(c2C1)OCO4)OCO3 [Protopine, protopine]	–	–	62.4 ± 9.9 µM	notably enhanced the assembly of the microtubule network	No apparent changes of actin filaments	67.3 ± 9.06 µM	thickened spindle arrays	27500 ± 11800 nM	–	effect on tubulin polymerization in vitro [1]: did not affect tubulin polymerization; G2/M population (Hela cells [7]; 250 μM, 24 h): 54.35% ± 11.26%; G2/M population (Hela cells [7]; 250.9 μM): 54.35% ± 11.26%
–	C[n+]1cc2c3c(ccc2c2ccc4cc5c(cc4c21)OCO5)OCO3 [Sanguinarine, sanguinarine]	48.4 ± 3.73 µM	920 to 7630 nM	0.92 ± 0.53 µM	–	significant reduction of actin filament mass	1.24 ± 0.21 µM	had no impact on mitotic spindles	1030 ± 40 nM	did not change the proportion of mitotic cells	effect on microtubule network [3]: disrupted microtubule distribution and altered their morphology; effect on interphase cellular microtubules [5]: significantly reduced the mass of microtubules
–	CC[C@]1(O)C[C@@H]2CN(CCc3c([nH]c4ccccc34)[C@@](C(=O)OC)(c3cc4c(cc3OC)N(C)[C@H]3[C@@](O)(C(=O)OC)[C@H](OC(C)=O)[C@]5(CC)C=CCN6CC[C@]43[C@@H]65)C2)C1 [Vinblastine, vinblastine]	1.42 ± 0.05 µM	–	0.0001 ± 5e-05 µM	microtubules were extensively depolymerized and tubulin paracrystals were formed	No apparent changes of actin filaments	7e-05 ± 5e-05 µM	depolymerized bipolar spindles	0.02 ± 0.01 nM	–	IC50 [2, 10]: 0.02 to 0.1 nM; G2/M population (Hela cells [7]; 10 nM, 24 h): 78.04% ± 14.78%

SMILES	IC50 [1]	IC50 ([1]; mean ± SD)	IC50 [2, 8]	IC50 (U2OS cells; Homo sapiens, U2OS)	effect on microtubule network [3, 9]	effect on actin filaments [4]	IC50 (MCF-7 cells; Homo sapiens, MCF7, 72 h)	effect on mitotic spindles [5]	IC50 (Hela cells [6]; Homo sapiens, HeLa)	effect on cell cycle (Hela cells [7]; 24 h)	also measured
COC(=O)C[C@](O)(CCCC(C)(C)O)C(=O)O[C@@H]1C(OC)=C[C@]23CCCN2CCc2cc4c(cc2[C@H]13)OCO4 [Homoharringtonine, homoharringtonine]	> 1000 µM	–	–	0.003 ± 0.00167 µM	No obvious changes on the cellular microtubule network	No apparent changes of actin filaments	0.00087 ± 0.00045 µM	did not affect mitotic spindles	9.03 ± 0.38 nM	had no impact on the cell cycle	effect on tubulin polymerization in vitro [1]: did not affect tubulin polymerization; IC50 [2, 10]: 0.87 to 9.03 nM
